Consider 24 molecules from US3992539A, “S-triazolo-[3,4-a]isoquinolines in treating inflammatory disorders” (Mallinckrodt, Inc., priority 1973, dated 1976).

In assay [1] the test system is carrageenin-induced pedal edema. As to the kind of experiment: inhibition of carrageenin-induced pedal edema in rats. As to conditions: Rattus norvegicus. Format: in vivo, rats (male Wistar). As for the experimental part:
The anti-inflammatory activity of a number of representative compounds of the invention was determined by measuring inhibition of carrageenin-induced pedal edema in rats. The procedure used was a modification of the method of Winter et al., Proc. Soc. Exptl. […] The device used for measurement of the paw volume was an adaptation of the water displacement procedure described by Adamkiewicz et al., Can. J. Biochem. Physiol. […] The compounds were studied for their effectiveness in inhibiting the edema caused by the intraplantar injection of 0.05 ml. of a sterile 1.0% solution of carrageenin. […] The compounds were administered orally one hour prior to the injection of the phlogistic substance (carrageenin) into the left hind paw of the rats. At peak swelling time (3 hours), the volume of edema was calculated by differential paw volumes.

Another assay concerns gastric secretion. Put plainly: anti-secretory activity, pylorus-ligated fasting rats (Shay rat procedure). Format: in vivo. As to conditions: for Anti-Secretory Activity (% Reduction of gastric secretion, ml./100 gm.): 50 mg./kg., fasting rats, 4 hours after pylorus ligation, subcutaneous (footnote), intraperitoneal; for anti-secretory activity rather than ulcerogenic properties (in words): rat, in vivo. Here is the method:
The anti-secretory properties of certain compounds of the invention was determined using the following procedure. The stomachs of fasting rats were ligated at the pylorus (Shay rat procedure) immediately followed by an intraperitoneal injection of 50 mg./kg. of each compound tested. Four hours later the animals were sacrificed, the stomachs removed and the total volume of fluid was measured.
*% Reduction of gastric secretion (ml./100 gm.) after subcutaneous
administration to fasting rats at 50 mg./kg.

For assay [2] the following is noted: U.S. Pat. No. 3,354,164; cited from earlier work.
[3] abbreviates: oral, one hour before carrageenin, edema at 3 hours, dose which reduced edema formation by 25% or more in 50% of the animals, read-out: Anti-Inflammatory Activity (ED50).
[4] abbreviates: po, 3 h, read-out: Anti-Inflammatory Activity (ED50), known antiinflammatory agents.
[5] abbreviates: po, 3 h, typical ED50 values from the same test, read-out: Anti-Inflammatory Activity (ED50), known antiinflammatory agents.

Each structure is given as a SMILES string. Where a name gives a salt, the structure may show the parent alone. Read-outs that look alike come from different tables or passages of the source. Bounds are passed on as bounds.

As a reminder, the ED50 is the midpoint of the dose-response relation.

`CCN(CC)CCNc1nnc2c3ccccc3ccn12` [3-(N,N-diethylaminoethylamino)-s-triazolo-[3,4-a]-isoquinoline]: in assay [1] (setting [3]), the ED50 worked out at 172 mg/kg. In the assay on gastric secretion, the “Anti-Secretory Activity (% Reduction of gastric secretion, ml./100 gm.)” value came out at 49% and the “anti-secretory activity rather than ulcerogenic properties (in words)” value is “exhibit anti-secretory activity rather than the ulcerogenic properties”.

As to `CN1CCN(c2nnc3c4ccccc4c(Cl)cn23)CC1` [3-(N-methylpiperazino)-6-chloro-s-triazolo-[3,4-a]-isoquinoline], in assay [1] (setting [3]), the ED50 is over 60 mg/kg.

For the molecule `CC(=O)OCc1nnc2c3ccccc3ccn12` [3-Acetoxymethyl-s-triazolo-[3,4-a]-isoquinoline], the ED50 in assay [1] (setting [3]) was about 100 mg/kg.

Turning to `COc1ccc2c(ccn3c(C)nnc23)c1` [3-Methyl-8-methoxy-s-triazolo-[3,4-a]-isoquinoline], the ED50 in assay [1] (setting [3]) was determined as 135 mg/kg.

For the molecule `COc1ccc2c(c1)-c1nnc(C(F)(F)F)n1CC2.Cl` [3-Trifluoromethyl-5,6-dihydro-9-methoxy-s-triazolo-[3,4-a]-isoquinoline Hydrochloride], the ED50 in assay [1] (setting [3]) is 38 mg/kg.

As for `COC(=O)c1cn2c(C(F)(F)F)nnc2c2ccccc12` [3-Trifluoromethyl-6-carbomethoxy-s-triazolo-[3,4-a]-isoquinoline], in the assay on gastric secretion, the “Anti-Secretory Activity (% Reduction of gastric secretion, ml./100 gm.)” value was 6.4% and the “anti-secretory activity rather than ulcerogenic properties (in words)” value is on record as “exhibit anti-secretory activity rather than the ulcerogenic properties”.

For `O=C(O)c1cn2c(C(F)(F)F)nnc2c2ccccc12` [3-Trifluoromethyl-6-carboxy-s-triazolo-[3,4-a]-isoquinoline,Potassium Salt], in assay [1] (setting [3]), the ED50 was over 160 mg/kg.

As to `FC(F)(F)c1nnc2c3cc4c(cc3ccn12)OCO4` [3-Trifluoromethyl-8,9-methylenedioxy-s-triazolo-[3,4-a]-isoquinoline], the ED50 in assay [1] (setting [3]) amounted to 80 mg/kg.

As to `FC(F)(F)c1nnc2c3cc(Cl)ccc3ccn12` [3-Trifluoromethyl-9-chloro-s-triazolo-[3,4-a]-isoquinoline], in assay [1] (setting [3]), the ED50 is about 160 mg/kg.

In the case of `COc1ccc2ccn3c(C(F)(F)F)nnc3c2c1` [3-Trifluoromethyl-9-methoxy-s-triazolo-[3,4-a]-isoquinoline], the ED50 in assay [1] (setting [3]) stood at 39 mg/kg.

For the molecule `Cc1ccc2ccn3c(C(F)(F)F)nnc3c2c1` [3-Trifluoromethyl-9-methyl-s-triazolo-[3,4-a]-isoquinoline], in assay [1] (setting [3]), the ED50 was about 160 mg/kg. Also, in the assay with gastric secretion, the “Anti-Secretory Activity (% Reduction of gastric secretion, ml./100 gm.)” value is 22% and the “anti-secretory activity rather than ulcerogenic properties (in words)” value is recorded as “exhibit anti-secretory activity rather than the ulcerogenic properties”.

Regarding `CC(C)Cc1nnc2c3ccccc3ccn12` [3-isobutyl-s-triazolo-[3,4-a]-isoquinoline], in assay [1] (setting [3]), the ED50 is 130 mg/kg. Besides, in the assay on gastric secretion, the “Anti-Secretory Activity (% Reduction of gastric secretion, ml./100 gm.)” value is 16% and the “anti-secretory activity rather than ulcerogenic properties (in words)” value is listed as “exhibit anti-secretory activity rather than the ulcerogenic properties”.

Take `Cc1nnc2c3cccc(Cl)c3ccn12.Cl` [3-methyl-7-chloro-s-triazolo-[3,4-a]-isoquinoline hydrochloride]: in assay [1] (setting [3]), the ED50 was over 30 mg/kg.

In the case of `Br.Cc1nnc2c3cccc(C#N)c3ccn12` [3-methyl-7-cyano-s-triazolo-[3,4-a]-isoquinoline hydrobromide], the 50% effective dose (ED50) in assay [1] (setting [3]) is under 100 mg/kg.

For `COc1ccc2ccn3c(C)nnc3c2c1` [3-methyl-9-methoxy-s-triazolo-[3,4-a]-isoquinoline], in assay [1] (setting [3]), the ED50 worked out at 115 mg/kg.

Turning to `Cl.c1c2c(cc3c1OCO3)-c1nncn1CC2` [5,6-Dihydro-8,9-methylenedioxy-s-triazolo-[3,4-a]-isoquinoline, Hydrochloride], in assay [1] (setting [3]), the ED50 is about 160 mg/kg.

Take `Cl.Cl.Clc1cccc2c1ccn1c(CN3CCOCC3)nnc21` [7-Chloro-3-morpholinomethyl-s-triazolo-[3,4-a]-isoquinoline (Dihydrochloride)]: in assay [1] (setting [3]), the ED50 was about 160 mg/kg.

Take `c1cn2cnnc2c2cc3c(cc12)OCO3` [8,9-Methylenedioxy-s-triazolo-[3,4-a]-isoquinoline]: the ED50 in assay [1] (setting [3]) is about 24 mg/kg. Also, in the assay on gastric secretion, the “Anti-Secretory Activity (% Reduction of gastric secretion, ml./100 gm.)” value was 29.5% and the “anti-secretory activity rather than ulcerogenic properties (in words)” value was “exhibit anti-secretory activity rather than the ulcerogenic properties”.

In the case of `CC(=O)Oc1ccccc1C(=O)O` [Aspirin, reference compound], the ED50 in assay [1] (setting [4]) is 224 mg/kg.

With `C[C@@H]1C[C@H]2[C@@H]3CCC4=CC(=O)C=C[C@]4(C)[C@@]3(F)[C@@H](O)C[C@]2(C)[C@@]1(O)C(=O)CO` [Dexamethasone, reference compound], in assay [1] (setting [4]), the ED50 was 0.18 mg/kg.

As to `CC(=O)OCC(=O)[C@@]1(O)CC[C@H]2[C@@H]3CCC4=CC(=O)CC[C@]4(C)[C@H]3[C@@H](O)C[C@@]21C` [Hydrocortisone Acetate, reference compound], the ED50 in assay [1] (setting [5]) was 26 mg/kg.

Turning to `COc1ccc2c(c1)c(CC(=O)O)c(C)n2C(=O)c1ccc(Cl)cc1` [Indomethacin, reference compound], the ED50 in assay [1] (setting [4]) was 2.4 mg/kg.

As for `CCCCC1C(=O)N(c2ccccc2)N(c2ccccc2)C1=O` [Phenylbutazone, reference compound], the ED50 in assay [1] (setting [5]) came to 30 mg/kg.

With `c1ccc2c(c1)ccn1cnnc21` [s-triazolo-[3,4-a]-isoquinoline], in assay [2], the “coronary vasodilator activity (in words)” value was “coronary vasodilators”.
